Test results reported in patent US12421243B2, “Pharmaceutically effective compounds inhibiting selectively the myosin 2 isoforms” (PRINTNET KERESKEDELMI ÉS SZOLGÁLTATÓ KFT., priority 2018, dated 2025).

Tests used:
[1] = target: isolated smooth muscle myosin (UniProt P10587); type: biochemical, chamois; details: for % inhibition at 5 μM (or 10 μM if racemate) Smooth: 5 μM (10 μM if racemate); for % inhibition at 5 μM (or 10 μM if racemate) Smooth / % inhibition at 50 μM (or 100 μM if racemate) Smooth: ATPase activity; for % inhibition at 50 μM (or 100 μM if racemate) Smooth: 50 μM (100 μM if racemate); for % inhibition. complete Smooth: maximum value of inhibition of ATPase activity; for Inhibition (%) smooth: maximum inhibition, compounds in IC50 range […]-5 μM
Sequence of isolated smooth muscle myosin (P10587 whole entry): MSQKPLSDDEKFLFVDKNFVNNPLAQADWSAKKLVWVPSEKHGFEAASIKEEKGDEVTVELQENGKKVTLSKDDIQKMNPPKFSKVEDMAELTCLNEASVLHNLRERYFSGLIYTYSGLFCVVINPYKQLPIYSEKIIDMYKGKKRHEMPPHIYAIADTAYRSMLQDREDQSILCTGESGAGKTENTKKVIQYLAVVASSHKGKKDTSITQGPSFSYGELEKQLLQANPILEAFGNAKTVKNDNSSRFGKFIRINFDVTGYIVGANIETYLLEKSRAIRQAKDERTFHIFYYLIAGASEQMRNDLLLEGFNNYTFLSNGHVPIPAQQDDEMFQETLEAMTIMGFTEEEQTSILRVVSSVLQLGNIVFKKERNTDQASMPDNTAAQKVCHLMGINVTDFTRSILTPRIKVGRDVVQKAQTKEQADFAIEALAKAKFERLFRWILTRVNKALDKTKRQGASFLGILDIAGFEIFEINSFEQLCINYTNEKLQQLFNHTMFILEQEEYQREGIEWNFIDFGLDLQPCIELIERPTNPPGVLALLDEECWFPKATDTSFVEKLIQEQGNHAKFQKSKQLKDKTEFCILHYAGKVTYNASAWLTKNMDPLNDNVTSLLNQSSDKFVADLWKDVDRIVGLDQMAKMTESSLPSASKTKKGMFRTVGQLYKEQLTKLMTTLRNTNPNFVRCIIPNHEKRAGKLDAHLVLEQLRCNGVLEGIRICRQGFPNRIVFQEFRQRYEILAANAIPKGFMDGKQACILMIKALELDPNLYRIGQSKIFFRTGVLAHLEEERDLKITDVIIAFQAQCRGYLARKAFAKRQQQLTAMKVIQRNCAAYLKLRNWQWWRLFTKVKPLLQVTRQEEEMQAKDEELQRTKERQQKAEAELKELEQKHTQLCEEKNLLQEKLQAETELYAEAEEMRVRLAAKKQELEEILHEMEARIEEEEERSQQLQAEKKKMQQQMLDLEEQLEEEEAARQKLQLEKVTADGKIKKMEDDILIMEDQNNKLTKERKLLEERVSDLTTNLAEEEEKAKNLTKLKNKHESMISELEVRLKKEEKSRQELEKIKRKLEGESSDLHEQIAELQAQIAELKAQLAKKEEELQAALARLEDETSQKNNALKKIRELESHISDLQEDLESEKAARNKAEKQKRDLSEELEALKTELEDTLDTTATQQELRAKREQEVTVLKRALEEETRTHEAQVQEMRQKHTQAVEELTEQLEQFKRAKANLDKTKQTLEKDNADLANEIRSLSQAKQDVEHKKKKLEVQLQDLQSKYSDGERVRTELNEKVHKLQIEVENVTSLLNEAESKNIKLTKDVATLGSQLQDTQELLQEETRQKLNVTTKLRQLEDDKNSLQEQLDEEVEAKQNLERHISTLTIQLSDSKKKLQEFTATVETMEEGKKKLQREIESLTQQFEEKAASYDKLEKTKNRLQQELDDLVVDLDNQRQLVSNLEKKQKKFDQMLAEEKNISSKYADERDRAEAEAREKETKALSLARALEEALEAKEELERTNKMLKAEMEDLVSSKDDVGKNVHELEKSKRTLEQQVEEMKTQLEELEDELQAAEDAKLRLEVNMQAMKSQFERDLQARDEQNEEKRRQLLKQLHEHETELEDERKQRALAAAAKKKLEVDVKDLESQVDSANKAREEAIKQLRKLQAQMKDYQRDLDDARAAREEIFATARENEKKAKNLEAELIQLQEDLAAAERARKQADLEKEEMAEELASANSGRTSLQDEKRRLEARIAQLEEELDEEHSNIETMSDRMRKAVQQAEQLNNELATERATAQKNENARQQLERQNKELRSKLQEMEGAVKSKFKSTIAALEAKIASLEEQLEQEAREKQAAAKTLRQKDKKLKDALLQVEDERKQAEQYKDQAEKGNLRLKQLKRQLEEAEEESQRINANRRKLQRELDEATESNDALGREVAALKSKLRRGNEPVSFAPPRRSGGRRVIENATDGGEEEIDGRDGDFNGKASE

[2] = tested on: isolated rabbit skeletal muscle myosin (skeletal); experiment: actomyosin steady state ATPase measurement, skeletal muscle myosin; type: biochemical; details: for % inhibition at 5 μM (or 10 μM if racemate) Skeletal: 5 μM (10 μM if racemate); for % inhibition at 5 μM (or 10 μM if racemate) Skeletal / % inhibition at 50 μM (or 100 μM if racemate) Skeletal: ATPase activity; for % inhibition at 50 μM (or 100 μM if racemate) Skeletal: 50 μM (100 μM if racemate); for IC50: concentration required for semi-maximal inhibition of ATPase; for % inhibition. complete Skeletal: maximum value of inhibition of ATPase activity
Text: (§1) […]; (ii) the concentration required for semi-maximal inhibition.

[3] = target: recombinant Dictyostelium miozin (Dictyostelium) (Dictyostelium discoideum, UniProt P08799); experiment: actomyosin steady state ATPase measurement, Dictyostelium myosin; type: biochemical; details: for IC50: concentration required for semi-maximal inhibition of ATPase, read-out: IC50 (μM) Dicty; for inhibition at 5 µM: read-out: % inhibition at 5 μM (or 10 μM if racemate) Dicty; for inhibition at 50 µM: read-out: % inhibition at 50 μM (or 100 μM if racemate) Dicty; for % inhibition. complete Dicty: maximum value of inhibition of ATPase activity
Sequence of recombinant Dictyostelium miozin (Dictyostelium) (P08799 whole entry): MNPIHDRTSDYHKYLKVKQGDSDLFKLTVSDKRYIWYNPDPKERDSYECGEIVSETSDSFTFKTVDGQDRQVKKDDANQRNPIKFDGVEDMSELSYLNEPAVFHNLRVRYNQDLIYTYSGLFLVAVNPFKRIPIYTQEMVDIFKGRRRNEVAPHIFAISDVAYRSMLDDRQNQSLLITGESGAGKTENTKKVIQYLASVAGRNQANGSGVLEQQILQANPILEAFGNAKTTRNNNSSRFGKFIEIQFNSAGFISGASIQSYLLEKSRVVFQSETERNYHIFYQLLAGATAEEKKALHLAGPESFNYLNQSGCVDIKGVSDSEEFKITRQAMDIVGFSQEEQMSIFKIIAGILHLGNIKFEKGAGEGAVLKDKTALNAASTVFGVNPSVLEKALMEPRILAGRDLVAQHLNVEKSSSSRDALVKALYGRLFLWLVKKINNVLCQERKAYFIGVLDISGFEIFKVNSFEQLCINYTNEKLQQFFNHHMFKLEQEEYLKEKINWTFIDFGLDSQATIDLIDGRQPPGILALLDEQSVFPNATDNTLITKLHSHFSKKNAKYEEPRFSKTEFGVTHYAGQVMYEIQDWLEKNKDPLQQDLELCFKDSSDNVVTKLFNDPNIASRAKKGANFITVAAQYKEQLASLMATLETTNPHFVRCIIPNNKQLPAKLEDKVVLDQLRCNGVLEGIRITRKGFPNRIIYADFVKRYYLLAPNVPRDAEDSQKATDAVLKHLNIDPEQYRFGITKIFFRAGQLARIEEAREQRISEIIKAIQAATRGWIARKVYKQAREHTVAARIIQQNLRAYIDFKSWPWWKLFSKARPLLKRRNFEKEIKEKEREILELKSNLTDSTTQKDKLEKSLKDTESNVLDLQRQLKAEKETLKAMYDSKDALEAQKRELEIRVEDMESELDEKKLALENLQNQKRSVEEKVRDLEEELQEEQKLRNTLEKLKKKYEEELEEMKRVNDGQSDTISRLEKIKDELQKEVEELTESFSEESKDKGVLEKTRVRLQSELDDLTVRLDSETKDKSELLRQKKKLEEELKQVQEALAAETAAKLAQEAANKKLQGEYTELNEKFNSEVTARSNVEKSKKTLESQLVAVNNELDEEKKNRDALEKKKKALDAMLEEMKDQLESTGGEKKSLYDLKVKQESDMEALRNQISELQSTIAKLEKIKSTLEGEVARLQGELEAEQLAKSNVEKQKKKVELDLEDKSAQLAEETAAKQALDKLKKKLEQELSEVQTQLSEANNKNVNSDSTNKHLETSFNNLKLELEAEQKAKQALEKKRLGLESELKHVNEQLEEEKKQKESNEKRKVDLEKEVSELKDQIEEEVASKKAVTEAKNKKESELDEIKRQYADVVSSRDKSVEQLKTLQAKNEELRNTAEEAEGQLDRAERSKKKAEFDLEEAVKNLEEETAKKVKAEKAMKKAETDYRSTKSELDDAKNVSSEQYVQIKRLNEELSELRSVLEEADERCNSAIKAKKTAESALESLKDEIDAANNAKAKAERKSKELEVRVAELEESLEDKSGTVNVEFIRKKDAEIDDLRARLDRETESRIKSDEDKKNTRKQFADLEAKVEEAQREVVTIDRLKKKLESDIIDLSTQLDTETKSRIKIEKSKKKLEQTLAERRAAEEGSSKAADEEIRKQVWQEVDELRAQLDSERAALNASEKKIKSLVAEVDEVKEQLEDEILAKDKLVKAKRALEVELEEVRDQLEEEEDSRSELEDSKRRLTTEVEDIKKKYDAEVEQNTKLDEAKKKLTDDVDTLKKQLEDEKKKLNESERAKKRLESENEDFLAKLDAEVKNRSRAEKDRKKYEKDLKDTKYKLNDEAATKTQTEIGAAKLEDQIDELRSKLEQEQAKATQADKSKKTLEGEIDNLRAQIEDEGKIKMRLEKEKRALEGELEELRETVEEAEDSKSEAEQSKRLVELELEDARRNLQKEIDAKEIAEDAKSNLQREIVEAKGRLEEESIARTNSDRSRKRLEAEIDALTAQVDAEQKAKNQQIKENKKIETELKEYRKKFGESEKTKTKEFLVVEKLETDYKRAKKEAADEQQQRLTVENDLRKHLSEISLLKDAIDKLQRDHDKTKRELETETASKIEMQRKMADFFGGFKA
Text: as §1

[4] = target: T1, isolated porcine cardiac ventricular myocardium (cardiac) (Sus scrofa, UniProt P79293); experiment: actomyosin steady state ATPase measurement, cardiac myosin; type: biochemical; details: for IC50: concentration required for semi-maximal inhibition of ATPase; for % inhibition. complete cardiac: maximum value of inhibition of ATPase activity; for inhibition at 5 µM: read-out: % inhibition at 5 μM (or 10 μM if racemate) cardiac, 5 μM (10 μM if racemate); for inhibition at 5 µM / inhibition at 50 µM: ATPase activity; for inhibition at 50 µM: read-out: % inhibition at 50 μM (or 100 μM if racemate) cardiac, 50 μM (100 μM if racemate)
T1 construct: isolated porcine cardiac ventricular myocardium (cardiac); from tissue; host or cells: porcine cardiac ventricle
Text: as §1

[5] = target: isolated smooth muscle myosin (UniProt P10587); type: biochemical, chamois; details: concentration required for semi-maximal inhibition of ATPase
Text: (ii) the concentration required for semi-maximal inhibition.

`O=C1c2ccsc2N=C2NCC[C@@]12O` [Compound 207, (9S)-9-Hydroxy-4-thia-2,12-diazatricyclo[7.3.0.0^3,7]dodeca-1,3(7),5-trien-8-one] was tested, and the “% inhibition at 5 μM (or 10 μM if racemate) Smooth” value [1] was 7%, the “% inhibition at 50 μM (or 100 μM if racemate) Smooth” value [1] was 6% and the “% inhibition. complete Smooth” value [1] was 7%. The “% inhibition at 5 μM (or 10 μM if racemate) Skeletal” value [2] was 7%, the “% inhibition at 50 μM (or 100 μM if racemate) Skeletal” value [2] was 14% and the IC50 [2] was 5.8 µM. The “% inhibition. complete Skeletal” value [2] was 15%, the IC50 [3] was > 100 µM and the inhibition at 5 µM [3] was 0%. For the same molecule, the inhibition at 50 µM [3] was 5%, the IC50 [4] was 3.7 µM and the “Inhibition (%) cardiac” value ([4]; maximum inhibition, compounds in IC50 range 3-6 μM) was 8%. The “% inhibition. complete cardiac” value [4] was 8%, the inhibition at 5 µM [4] was 4% and the inhibition at 50 µM [4] was 7%. It also gave an IC50 [5] of 1 µM.
In the case of `Cc1cc2c(s1)N=C1NCCC1(O)C2=O` (stereo not shown) [Compound 231, 9-Hydroxy-5-methyl-4-thia-2,12-diazatricyclo[7.3.0.0^3,7]dodeca-1,3(7),5-trien-8-one], the “% inhibition at 5 μM (or 10 μM if racemate) Smooth” value [1] is reported as 7%, the “% inhibition at 50 μM (or 100 μM if racemate) Smooth” value [1] is reported as 2% and the “Inhibition (%) smooth” value [1] is reported as 5%. The “% inhibition. complete Smooth” value [1] was 5%, the “% inhibition at 5 μM (or 10 μM if racemate) Skeletal” value [2] was 5% and the “% inhibition at 50 μM (or 100 μM if racemate) Skeletal” value [2] was 7%. The IC50 [2] was 1.4 µM, the “Inhibition (%) skeletal” value ([2]; maximum inhibition, compounds in IC50 range […]-2 μM) was 7% and the “% inhibition. complete Skeletal” value [2] was 7%. The IC50 [3] was > 100 µM, the inhibition at 5 µM [3] was 4% and the inhibition at 50 µM [3] was 0%. For the same molecule, the IC50 [4] was 1 µM, the inhibition at 5 µM [4] was 6% and the inhibition at 50 µM [4] was 5%. It also gave an IC50 [5] of 1 µM.
With `Cc1ccc(N2CCC3(O)C(=O)c4cc(C)sc4N=C23)cc1` (stereo not shown) [Compound 235, 12-[4-(Methyl)phenyl]-9-hydroxy-5-methyl-4-thia-2,12-diazatricyclo[7.3.0.0^3,7]dodeca-1,3(7),5-trien-8-one] the “% inhibition at 5 μM (or 10 μM if racemate) Smooth” value [1] was 82%, the “% inhibition at 50 μM (or 100 μM if racemate) Smooth” value [1] was 79% and the “% inhibition. complete Smooth” value [1] was 81%. For the same molecule, the “% inhibition at 5 μM (or 10 μM if racemate) Skeletal” value [2] was 98%, the “% inhibition at 50 μM (or 100 μM if racemate) Skeletal” value [2] was 100% and the IC50 [2] was 0.08 µM. The “% inhibition. complete Skeletal” value [2] was 100%, the IC50 [3] was 0.17 µM and the “% inhibition. complete Dicty” value [3] was 46%. For the same molecule, the inhibition at 5 µM [3] was 44%, the inhibition at 50 µM [3] was 45% and the IC50 [4] was 0.01 µM. The “% inhibition. complete cardiac” value [4] was 71%, the inhibition at 5 µM [4] was 72% and the inhibition at 50 µM [4] was 70%. For the same molecule, the IC50 [5] was 0.01 µM.
With `CC(=O)c1ccc(N2CCC3(O)C(=O)c4ccncc4N=C23)cc1` (stereo not shown) [Compound 240, 1-(4-Acetylphenyl)-3a-hydroxy-1H,2H,3H,3aH,4H-pyrrolo[2,3-b]1,7-naphthyridin-4-one] the “% inhibition at 5 μM (or 10 μM if racemate) Smooth” value [1] was 18%, the “% inhibition at 50 μM (or 100 μM if racemate) Smooth” value [1] was 23% and the “Inhibition (%) smooth” value [1] was 24%. For the same molecule, the “% inhibition. complete Smooth” value [1] was 24%, the “% inhibition at 5 μM (or 10 μM if racemate) Skeletal” value [2] was 49% and the “% inhibition at 50 μM (or 100 μM if racemate) Skeletal” value [2] was 83%. For the same molecule, the IC50 [2] was 4.3 µM, the “% inhibition. complete Skeletal” value [2] was 91% and the IC50 [3] was 0.39 µM. For the same molecule, the inhibition at 5 µM [3] was 24%, the inhibition at 50 µM [3] was 26% and the IC50 [4] was 8.1 µM. The “% inhibition. complete cardiac” value [4] was 37%, the inhibition at 5 µM [4] was 13% and the inhibition at 50 µM [4] was 31%. It also gave an IC50 [5] of 1.5 µM.
`Cc1cc2c(s1)N=C1N(c3ccc(N(C)C)cc3)CCC1(O)C2=O` (stereo not shown) [Compound 250, 12-[4-(Dimethylamino)phenyl]-9-hydroxy-5-methyl-4-thia-2,12-diazatricyclo[7.3.0.0^3,7]dodeca-1,3(7),5-trien-8-one] was tested, and the “% inhibition at 5 μM (or 10 μM if racemate) Skeletal” value [2] was 93%, the “% inhibition at 50 μM (or 100 μM if racemate) Skeletal” value [2] was 98% and the IC50 [2] was 0.3 µM. The “% inhibition. complete Skeletal” value [2] was 99%, the IC50 [3] was 18 µM and the “% inhibition. complete Dicty” value [3] was 68%. The inhibition at 5 µM [3] was 15%, the inhibition at 50 µM [3] was 50% and the IC50 [4] was 9 µM. For the same molecule, the “% inhibition. complete cardiac” value [4] was 76%, the inhibition at 5 µM [4] was 26% and the inhibition at 50 µM [4] was 64%.
